One experiment concerns the target T1, human recombinant NET (Homo sapiens, UniProt P23975).
T1 construct: membranes)
Nature of the experiment: NET radioligand binding assay (scintillation proximity, [3H]nisoxetine). On the procedure:
(§1) Affinity of the compounds for monoamine transporters was determined by in vitro radioligand binding assays using cell membrane preparations derived from HEK293 cell lines stably expressing human recombinant DAT, NET or SERT receptor (Suven Life Sciences, Hyderabad, India).
(§2) Stable DAT cell lines were generated following procedures described in Eshelman et al., Molecular Pharmacology 45, 312-316; 1994. Stable NET cell lines were generated following procedures described in Pacholczyk et al., Nature 350, 350-354, 1991 and Galli et al., Journal Exp. Biol. 198, 2197-2212, 1995. Stable SERT cell lines were generated following procedures described in Ramamoorthy et al., Proc Natl Acad Sci USA 90, 2542-246, 1993.
(§3) Cell membranes were obtained from the above-referenced cell lines by manually homogenizing previously frozen cell pellets in Tris-HCl buffer and serially centrifugating and re-extracting the preparations according procedures described in Subbu et al., Journal Pharmacol ExpTher 327, 982-990, 2008.
(§4) A scintillation proximity assay was used to measure receptor binding. Homogenized membrane preparations (final protein concentration 8-15 ug/well) were pre-incubated with WGA PVT SPA beads (0.5 mg/well) for 5 minutes. Binding was initiated by adding high affinity ligands and test compounds (0.1 nM to 10 μM) or reference/positive control ligands to the membrane-bead complex. Plates were incubated for three hours and raw data counts recorded using a liquid scintillation counter (MicroBetaTriLux Counter, Perkin Elmer). Inhibition constants (Ki) were calculated using GraphPad Prism software (version 4.0).
NET receptor binding was determined using procedures described in Mason et al., The Journal of Pharmacology and Experimental Therapeutics 323:720-729, 2007; and Eshleman et al., The Journal of Pharmacology and Experimental Therapeutics289:877-885, 1999. A mixture of [3H]nisoxetine hydrochloride (N-methyl-[3H]nisoxetine, Perkin Elmer) and bead-membrane complex was added to wells containing test compound. Wells containing unlabeled nisoxetine (100 uM, Sigma) were used to define non-specific NET binding. Total radioligand was defined using assay buffer containing 1% DMSO in the presence of [3H]nisoxetine. NET Ki values were calculated using GraphPad Prism software (version 4.0).
(In a scintillation proximity assay essentially only radioactivity close to the scintillant gives light.)

The next experiment deals with human recombinant DAT (Homo sapiens, UniProt Q01959). As to the kind of experiment: DAT radioligand binding assay (scintillation proximity, [3H]WIN-35428). On the procedure:
as §1, §2, §3, §4
DAT receptor binding was determined using procedures described in Skolnick et al., European Journal of Pharmacology, 461(2-3):99-104, 2003; and Eshleman et al., The Journal of Pharmacology and Experimental Therapeutics 289:877-885, 1999. A mixture of [3H]WIN-35428 (N-methyl 3H-WIN-35428, Perkin Elmer) and bead-membrane complex was added to wells containing test compound. Wells containing nomifensine maleate ([…], Sigma) were used to define non-specific […] binding. Total radioligand was defined by assay buffer containing 1% DMSO in the presence of [3H]WIN-35428. DAT Ki values were calculated using GraphPad Prism software (version 4.0).

The target in a further experiment is T2, human recombinant SERT (Homo sapiens, UniProt P31645).
T2 construct: membranes)
Nature of the experiment: SERT radioligand binding assay (scintillation proximity, [3H]citalopram). On the procedure: as §1, §2, §3, §4
SERT receptor binding was determined using procedures described in Owens et al., The Journal of Pharmacology and Experimental Therapeutics 283:1305-1322, 1997. A mixture of [3H]citalopram (N-methyl-[3H]citalopram, Perkin Elmer) and bead-membrane complex was added to wells containing test compound. Non-specific binding was determined using wells containing venlafaxine hydrochloride (100 uM, Sigma). Total radioligand was determined using assay buffer containing 1% DMSO in the presence of [3H]citalopram. SERT Ki values were calculated using GraphPad Prism software (version 4.0).

Where [1] appears, read: HEK293 cell membranes expressing human recombinant NET, [3H]nisoxetine, SPA, read-out: NET Ki.
Where [2] appears, read: HEK293 cell membranes expressing human recombinant SERT, [3H]citalopram, SPA, read-out: SERT Ki.

Read-outs that look alike come from different tables or passages of the source.

human recombinant DAT, sequence (Q01959 whole entry): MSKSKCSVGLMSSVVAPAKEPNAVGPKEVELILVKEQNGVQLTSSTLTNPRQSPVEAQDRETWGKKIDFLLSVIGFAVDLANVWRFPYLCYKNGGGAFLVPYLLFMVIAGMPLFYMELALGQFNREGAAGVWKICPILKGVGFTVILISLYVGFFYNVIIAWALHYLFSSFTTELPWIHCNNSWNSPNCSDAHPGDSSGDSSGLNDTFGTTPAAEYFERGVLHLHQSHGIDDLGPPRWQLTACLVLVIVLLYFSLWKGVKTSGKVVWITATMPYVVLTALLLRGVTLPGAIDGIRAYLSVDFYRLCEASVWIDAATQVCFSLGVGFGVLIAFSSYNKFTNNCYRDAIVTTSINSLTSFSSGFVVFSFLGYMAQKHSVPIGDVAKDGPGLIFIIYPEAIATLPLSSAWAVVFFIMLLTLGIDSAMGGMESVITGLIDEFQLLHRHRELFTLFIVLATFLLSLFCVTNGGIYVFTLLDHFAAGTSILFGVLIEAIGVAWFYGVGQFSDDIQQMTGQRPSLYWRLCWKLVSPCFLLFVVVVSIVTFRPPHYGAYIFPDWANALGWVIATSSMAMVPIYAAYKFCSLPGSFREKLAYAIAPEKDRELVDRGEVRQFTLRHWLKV
T2 sequence (P31645 whole entry): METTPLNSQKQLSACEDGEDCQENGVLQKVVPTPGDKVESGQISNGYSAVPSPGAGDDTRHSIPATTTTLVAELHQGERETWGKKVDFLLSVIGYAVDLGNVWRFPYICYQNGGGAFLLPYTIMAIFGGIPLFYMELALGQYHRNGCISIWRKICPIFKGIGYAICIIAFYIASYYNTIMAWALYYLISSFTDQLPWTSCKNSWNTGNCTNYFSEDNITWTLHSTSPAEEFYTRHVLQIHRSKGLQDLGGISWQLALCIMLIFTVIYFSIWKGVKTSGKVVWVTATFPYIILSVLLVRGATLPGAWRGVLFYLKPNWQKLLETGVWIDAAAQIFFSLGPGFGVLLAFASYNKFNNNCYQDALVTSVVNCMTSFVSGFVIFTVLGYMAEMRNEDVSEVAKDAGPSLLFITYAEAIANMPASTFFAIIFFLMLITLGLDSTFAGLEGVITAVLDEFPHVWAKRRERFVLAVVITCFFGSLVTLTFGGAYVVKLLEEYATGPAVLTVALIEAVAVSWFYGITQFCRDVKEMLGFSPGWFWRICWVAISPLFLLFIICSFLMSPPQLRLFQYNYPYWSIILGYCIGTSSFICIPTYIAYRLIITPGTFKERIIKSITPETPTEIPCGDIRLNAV
T1 sequence (P23975 whole entry): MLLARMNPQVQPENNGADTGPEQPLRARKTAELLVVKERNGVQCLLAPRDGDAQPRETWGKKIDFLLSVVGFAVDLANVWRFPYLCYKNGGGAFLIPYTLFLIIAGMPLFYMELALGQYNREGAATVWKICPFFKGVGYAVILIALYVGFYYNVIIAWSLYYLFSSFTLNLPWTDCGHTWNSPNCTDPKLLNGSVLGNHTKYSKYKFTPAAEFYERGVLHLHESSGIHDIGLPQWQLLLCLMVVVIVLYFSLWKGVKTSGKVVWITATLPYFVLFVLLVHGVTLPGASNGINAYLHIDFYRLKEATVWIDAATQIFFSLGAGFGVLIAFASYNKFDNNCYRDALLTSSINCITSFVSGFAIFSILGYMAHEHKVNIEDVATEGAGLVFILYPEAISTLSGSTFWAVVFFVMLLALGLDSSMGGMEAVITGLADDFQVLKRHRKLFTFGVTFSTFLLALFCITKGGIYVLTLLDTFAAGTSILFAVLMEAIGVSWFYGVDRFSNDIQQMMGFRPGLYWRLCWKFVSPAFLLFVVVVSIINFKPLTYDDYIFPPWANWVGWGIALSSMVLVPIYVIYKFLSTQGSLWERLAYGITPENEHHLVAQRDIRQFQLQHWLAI

As a reminder, the Ki is a measure of affinity in units of concentration, obtained from inhibition or displacement. `OC(CN1CCCC(F)(F)C1)C1(c2ccc(Cl)c(Cl)c2)CCC1` (stereo not drawn) [Compound 22, 1-{2-[1-(3,4-Dichlorophenyl)cyclobutyl]-2-hydroxyethyl}-3,3-difluoropiperidin-1-ium chloride]: the Ki on human recombinant NET (setting [1]) was 101 to 500 nM; at human recombinant DAT, below 10 nM; at human recombinant SERT (setting [2]), above 500 nM.
For `CC1(NCC(O)C2(c3ccc(Cl)c(Cl)c3)CCC2)CCC1` (stereo not drawn) [Compound 38, N-{2-[1-(3,4-Dichlorophenyl)cyclobutyl]-2-hydroxyethyl}-1-methylcyclobutan-1-aminium chloride] the same measures were 11 to 100 nM, below 10 nM and 101 to 500 nM.
For `N#CC1CCCN(CC(O)C2(c3ccc(Cl)c(Cl)c3)CCC2)C1` (stereo not drawn) [Compound 32, 1-{2-[1-(3,4-dichlorophenyl)cyclobutyl]-2-hydroxyethyl}piperidine-3-carbonitrile] the same measures were 101 to 500 nM, below 10 nM and 11 to 100 nM.
As for `OC(CN1CCC(F)CC1)C1(c2ccc(Cl)c(Cl)c2)CCC1` (stereo not drawn) [Compound 23, 1-{2-[1-(3,4-Dichlorophenyl)cyclobutyl]-2-hydroxyethyl}-4-fluoropiperidin-1-ium chloride], the Ki at human recombinant NET (setting [1]) was 101 to 500 nM; on human recombinant DAT it was below 10 nM; on human recombinant SERT (setting [2]), above 500 nM.
Taken in the same sequence, the figures for `Clc1ccc(C2(CN3CCCCC3)CCC2)cc1` [Compound 1] were above 500 nM, 101 to 500 nM and above 500 nM.
Regarding `O=C(CN1CCCCC1)C1(c2ccc(Cl)cc2)CCC1` [Compound 66], the Ki at human recombinant NET was above 500 nM; on human recombinant DAT (HEK293 cell membranes expressing human recombinant DAT, [3H]WIN-35428, SPA, read-out: DAT Ki), above 500 nM; at human recombinant SERT, above 500 nM.
For `OC(CN1CCCCC1)C1(c2cccc(Cl)c2)CCC1` (stereo not drawn) [Compound 12, 1-{2-[1-(3-Chlorophenyl)cyclobutyl]-2-hydroxyethyl}piperidin-1-ium chloride], the Ki on human recombinant NET (setting [1]), on human recombinant DAT and on human recombinant SERT (setting [2]) was above 500 nM in each case.
As to `O=C(CN1CCCCC1)C1(c2ccc(Cl)c(Cl)c2)CCC1` [Compound 67], the Ki at human recombinant NET (setting [1]) is above 500 nM; on human recombinant DAT, 11 to 100 nM; at human recombinant SERT (setting [2]), 101 to 500 nM.
With `O=C(CN1CCCCC1)C1(c2ccccc2)CCC1` [Compound 68, 1-[2-oxo-2-(1-phenylcyclobutyl)ethyl]piperidin-1-ium chloride], the Ki on human recombinant NET (setting [1]), on human recombinant DAT and on human recombinant SERT (setting [2]) was above 500 nM in each case.
With `OC(CN1CCCC(F)C1)C1(c2ccc(Cl)c(Cl)c2)CCC1` (stereo not drawn) [Compound 21, 1-{2-[1-(3,4-Dichlorophenyl)cyclobutyl]-2-hydroxyethyl}-3-fluoropiperidin-1-ium chloride], the Ki on human recombinant NET (setting [1]) is 11 to 100 nM; on human recombinant DAT, below 10 nM; on human recombinant SERT (setting [2]), above 500 nM.
Taken in the same sequence, the figures for `OC(CN1CCCCC1)C1(c2ccc3ccccc3c2)CCC1` (stereo not drawn) [Compound 15, 1-{2-hydroxy-2-[1-(naphthalen-2-yl)cyclobutyl]ethyl}piperidin-1-ium chloride] were 11 to 100 nM, 11 to 100 nM and 101 to 500 nM.
Taken in the same sequence, the figures for `O=C(CN1CCCCC1)C1(c2cccc(Cl)c2)CCC1` [Compound 69] were above 500 nM, above 500 nM and above 500 nM.
`O[C@H](CN1CCCCC1)C1(c2ccc(Cl)c(Cl)c2)CCC1` [Compound 13, 1-[(2S)-2-[1-(3,4-dichlorophenyl)cyclobutyl]-2-hydroxyethyl]piperidin-1-ium chloride]: the Ki at human recombinant NET (setting [1]) was 11 to 100 nM; at human recombinant DAT it was 11 to 100 nM; at human recombinant SERT (setting [2]), above 500 nM.
For the compound `CC(CF)NCC(O)C1(c2ccc(Cl)c(Cl)c2)CCC1` (stereo not drawn) [Compound 29, {2-[1-(3,4-dichlorophenyl)cyclobutyl]-2-hydroxyethyl}(1-fluoropropan-2-yl)azanium chloride], the Ki at human recombinant NET (setting [1]) is 101 to 500 nM; at human recombinant DAT, 11 to 100 nM; at human recombinant SERT (setting [2]) it was above 500 nM.
Take `O[C@@H](CN1CCCCC1)C1(c2ccc(Cl)c(Cl)c2)CCC1` [Compound 14, 1-[(2R)-2-[1-(3,4-dichlorophenyl)cyclobutyl]-2-hydroxyethyl]piperidin-1-ium chloride]: the Ki at human recombinant NET (setting [1]) is 101 to 500 nM; at human recombinant DAT it was 11 to 100 nM; at human recombinant SERT (setting [2]) it was above 500 nM.
Taken in the same sequence, the figures for `c1ccc(C2(CN3CCCCC3)CCC2)cc1` [Compound 4, 1-[(1-phenylcyclobutyl)methyl]piperidin-1-ium chloride] were above 500 nM, above 500 nM and above 500 nM.
Taken in the same sequence, the figures for `OC(CN1CCOCC1)C1(c2ccc(Cl)c(Cl)c2)CCC1` (stereo not drawn) [Compound 30, 4-{2-[1-(3,4-Dichlorophenyl)cyclobutyl]-2-hydroxyethyl}morpholin-4-ium chloride] were above 500 nM, 11 to 100 nM and above 500 nM.
Regarding `OC(CN1CC2CC(F)C1C2)C1(c2ccc(Cl)c(Cl)c2)CCC1` (stereo not drawn) [Compound 39, 2-{2-[1-(3,4-Dichlorophenyl)cyclobutyl]-2-hydroxyethyl}-6-fluoro-2-azabicyclo[2.2.1]heptan-2-ium chloride], the Ki on human recombinant NET (setting [1]) is 101 to 500 nM; on human recombinant DAT, 101 to 500 nM; on human recombinant SERT (setting [2]), above 500 nM.
Take `OC(CN1CCCC1)C1(c2ccc(Cl)c(Cl)c2)CCC1` (stereo not drawn) [Compound 17, 1-{2-[1-(3,4-Dichlorophenyl)cyclobutyl]-2-hydroxyethyl}pyrrolidin-1-ium chloride]: the Ki is 101 to 500 nM on human recombinant NET (setting [1]), 11 to 100 nM on human recombinant DAT and above 500 nM at human recombinant SERT (setting [2]).
`OC(CNC1CC1)C1(c2ccc(Cl)c(Cl)c2)CCC1` (stereo not drawn) [Compound 35, N-{2-[1-(3,4-Dichlorophenyl)cyclobutyl]-2-hydroxyethyl}cyclopropanaminium chloride]: the Ki on human recombinant NET (setting [1]) was 101 to 500 nM; on human recombinant DAT it was 11 to 100 nM; on human recombinant SERT (setting [2]), above 500 nM.

Values taken from patent US20150057443A1, “Cycloalkyl Amine Compounds” (Prexa Pharmaceuticals, Inc., priority 2013, published 2015).
